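48-hour exposure; five concentrations; linearly interpolated endpoints. GI50 marks 50% less growth.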 Calls of active or inactive are those of the source. Rule as the data show it: active = GI50 up to about 1.1 µM and inactive = higher. Where only a bound is given, the exact number is not on record here.

Among the test systems are A549; SK-MEL-28; HCC 2998; LOX IMVI; HL-60; SNB-19; NCI-H522; OVCAR-4; CCRF-CEM; SNB-75; NCI/ADR-RES; EKVX; MDA-MB-435; M14; MDA-N; MOLT-4; MCF7; IGROV-1; U-251; TK-10.
Experiment in all cases: inhibition of tumour cell growth, NCI panel, 48 h

With `O=C1Nc2ccccc2/C1=N/NC(=S)Nc1ccc([N+](=O)[O-])cc1`, the GI50 is 6.9 µM (inactive) with A549; 14.2 µM (inactive) in the test with SK-MEL-28; 11.3 µM (inactive) in the test with HCC 2998; 2.94 µM (inactive) in the test on LOX IMVI; > 100 µM (inactive) with HL-60; 10.7 µM (inactive) with SNB-19. Also, the GI50 is 12.5 µM (inactive) with NCI-H522; 18.6 µM (inactive) in the test with OVCAR-4; 1.53 µM (inactive) with CCRF-CEM; 13.9 µM (inactive) with SNB-75; 3.01 µM (inactive) in the test with NCI/ADR-RES; 12.3 µM (inactive) in the test on EKVX. Further, the GI50 with MDA-MB-435 is 6.19 µM (inactive); in the test with M14 it was 6.62 µM (inactive); in the test on MDA-N, 11.4 µM (inactive); with MOLT-4, 2.28 µM (inactive); in the test on MCF7, 7.93 µM (inactive); with IGROV-1, 10.7 µM (inactive). The values for the GI50 with U-251 and in the test with TK-10 were 5.85 µM (inactive) and 10 µM (inactive), respectively.
As to `O=[N+]([O-])c1ccc(-n2nc3ccc4c(no[n+]4[O-])c3[n+]2[O-])c([N+](=O)[O-])c1`, the GI50 is 16 µM (inactive) with A549; 2.51 µM (inactive) with SK-MEL-28; 3.3 µM (inactive) in the test on HCC 2998; 1.77 µM (inactive) in the test on LOX IMVI; 1.95 µM (inactive) in the test on HL-60; 6.24 µM (inactive) with SNB-19. In addition, the GI50 in the test on NCI-H522 is 1.72 µM (inactive); with OVCAR-4 it was 1.68 µM (inactive); in the test with CCRF-CEM, 0.938 µM (active); with SNB-75, 8.81 µM (inactive); in the test on NCI/ADR-RES, 3.16 µM (inactive); with EKVX, 12.2 µM (inactive). For the same compound, the GI50 with MDA-MB-435 was 2.71 µM (inactive); in the test with M14, 1.59 µM (inactive); in the test with MDA-N, 2.08 µM (inactive); in the test with MOLT-4, 1.95 µM (inactive); with MCF7 it was 1.9 µM (inactive); with IGROV-1, 1.71 µM (inactive). Further, the GI50 was 2.77 µM (inactive) in the test on U-251 and 2.86 µM (inactive) in the test on TK-10.
Consider `COc1ccc(-c2cc(=O)c3c(O)cc(O)cc3o2)cc1OC`, for which the GI50 in the test with A549 was > 100 µM (inactive); with SK-MEL-28, > 100 µM (inactive); with HCC 2998, > 100 µM (inactive); in the test on LOX IMVI, 61.8 µM (inactive); in the test on HL-60, 39.9 µM (inactive); in the test with SNB-19 it was 26.6 µM (inactive). Further, the GI50 in the test on NCI-H522 was 16.7 µM (inactive); with OVCAR-4, > 100 µM (inactive); in the test with CCRF-CEM, 41.8 µM (inactive); in the test with SNB-75, 4.69 µM (inactive); in the test on NCI/ADR-RES, 56.8 µM (inactive); in the test with EKVX, 83.8 µM (inactive). Besides, the GI50 in the test on MDA-MB-435 is > 100 µM (inactive); with M14 it was > 100 µM (inactive); in the test with MDA-N, > 100 µM (inactive); in the test on MOLT-4, 44 µM (inactive); with MCF7 it was > 100 µM (inactive); in the test on IGROV-1 it was 92 µM (inactive). In addition, the GI50 with U-251 is 30 µM (inactive); in the test with TK-10 it was > 100 µM (inactive).
Consider `O=S(=O)(c1cccc(C(F)(F)F)c1)N1c2ccccc2-n2cccc2C1c1cccnc1` (stereo not given), for which the GI50 is 17.3 µM (inactive) in the test on A549; 29.4 µM (inactive) with SK-MEL-28; 24.7 µM (inactive) in the test on HCC 2998; 35.5 µM (inactive) in the test with LOX IMVI; 1.1 µM (active) in the test on HL-60; 32.6 µM (inactive) with SNB-19. Besides, the GI50 was 15.4 µM (inactive) with NCI-H522; 24.8 µM (inactive) in the test with OVCAR-4; 8.75 µM (inactive) in the test on CCRF-CEM; 61.9 µM (inactive) with SNB-75; 5.19 µM (inactive) with NCI/ADR-RES; > 100 µM (inactive) with EKVX. In addition, the GI50 with MDA-MB-435 is 6.3 µM (inactive); with M14, 16.2 µM (inactive); in the test with MDA-N, 26.9 µM (inactive); in the test on MOLT-4 it was 4.18 µM (inactive); in the test on MCF7, 13.9 µM (inactive); with IGROV-1, 40.6 µM (inactive). Moreover, the GI50 with U-251 was 23.9 µM (inactive); in the test with TK-10, > 53.8 µM (inactive).
Regarding `CC1(C)CCC(C)(C)c2cc(C(=O)Nc3ccc(C(=O)O)cc3)ccc21`, the GI50 was 20 µM (inactive) in the test with A549; 40.3 µM (inactive) in the test on SK-MEL-28; 19.2 µM (inactive) in the test with HCC 2998; 24.4 µM (inactive) in the test with LOX IMVI; 3.52 µM (inactive) with HL-60; 26.1 µM (inactive) with SNB-19. Also, the GI50 in the test on NCI-H522 is 26.9 µM (inactive); with OVCAR-4 it was 20.9 µM (inactive); in the test on CCRF-CEM, 18.2 µM (inactive); in the test on SNB-75, 26.4 µM (inactive); in the test on NCI/ADR-RES it was 19.9 µM (inactive); in the test with EKVX it was 19.5 µM (inactive). The GI50 with MDA-MB-435 was 16.4 µM (inactive); with M14 it was 19.6 µM (inactive); in the test on MDA-N, 22 µM (inactive); in the test with MOLT-4, 24.9 µM (inactive); in the test with MCF7, 33.1 µM (inactive); in the test with IGROV-1, 22.7 µM (inactive). Moreover, the values for the GI50 in the test with U-251 and in the test with TK-10 were 27 µM (inactive) and 26.1 µM (inactive), respectively.
For the compound `Cc1ccc(NC(=O)/C(CC2Nc3c(ccc4c3C(=O)c3ccccc3C4=O)NC2O)=N/NC(C)(C)C)cc1` (stereo not given), the GI50 with A549 was 16.1 µM (inactive); in the test on SK-MEL-28 it was 12.1 µM (inactive); with HCC 2998, 22.6 µM (inactive); in the test with LOX IMVI, 7.23 µM (inactive); in the test with HL-60, 3.97 µM (inactive); in the test on SNB-19, 28 µM (inactive). Moreover, the GI50 with NCI-H522 is 15.9 µM (inactive); in the test with OVCAR-4 it was 17.7 µM (inactive); with CCRF-CEM, 1.36 µM (inactive); in the test on SNB-75 it was 25.8 µM (inactive); in the test with NCI/ADR-RES it was 1.67 µM (inactive); with EKVX it was 10 µM (inactive). The GI50 in the test on MDA-MB-435 was 17.7 µM (inactive); in the test with M14 it was 18.7 µM (inactive); in the test on MDA-N it was 14.1 µM (inactive); in the test with MOLT-4, 2.37 µM (inactive); in the test on MCF7, 23.7 µM (inactive); with IGROV-1 it was 8.07 µM (inactive). The GI50 was 14.1 µM (inactive) in the test on U-251 and 7.66 µM (inactive) in the test with TK-10.
Take `CC(=O)OCC1OC(n2c(N)c(C#N)c(-c3ccccc3)c(C#N)c2=S)C(OC(C)=O)C(OC(C)=O)C1OC(C)=O` (stereo not given): the GI50 in the test on A549 was > 100 µM (inactive); in the test on SK-MEL-28 it was > 100 µM (inactive); in the test with HCC 2998, > 100 µM (inactive); with LOX IMVI it was > 100 µM (inactive); in the test with HL-60, > 100 µM (inactive); with SNB-19 it was 19 µM (inactive). For the same compound, the GI50 in the test with NCI-H522 was 13 µM (inactive); in the test on OVCAR-4, > 49.8 µM (inactive); with CCRF-CEM, > 100 µM (inactive); in the test with SNB-75 it was 7.33 µM (inactive); in the test on NCI/ADR-RES it was > 100 µM (inactive); with EKVX, > 74.3 µM (inactive). For the same compound, the GI50 with MDA-MB-435, in the test on M14, in the test with MDA-N, with MOLT-4, in the test on MCF7 and in the test with IGROV-1 was > 100 µM (inactive) throughout. In addition, the figures for the GI50 in the test on U-251 and with TK-10 were 11.2 µM (inactive) and > 100 µM (inactive), respectively.
As for `OC(CC(CC(O)(C(F)(F)Cl)C(F)(F)Cl)=NNc1ccccc1)(C(F)(F)Cl)C(F)(F)Cl`, the GI50 with A549 was 3.41 µM (inactive); in the test on SK-MEL-28 it was 2.92 µM (inactive); in the test on HCC 2998 it was 4.23 µM (inactive); in the test with LOX IMVI it was 2.94 µM (inactive); with HL-60, > 10 µM (inactive); in the test with SNB-19, 4.01 µM (inactive). Further, the GI50 with NCI-H522 is 4.4 µM (inactive); with OVCAR-4 it was 3.33 µM (inactive); in the test on CCRF-CEM, > 10 µM (inactive); in the test on SNB-75 it was 2.71 µM (inactive); with NCI/ADR-RES, 4.05 µM (inactive); in the test on EKVX it was 3.27 µM (inactive). For the same compound, the GI50 in the test on MDA-MB-435 was 3.57 µM (inactive); in the test on M14, 4.26 µM (inactive); in the test on MDA-N it was 2.87 µM (inactive); with MOLT-4, > 10 µM (inactive); in the test on MCF7, 2.94 µM (inactive); in the test with IGROV-1, 5.62 µM (inactive). The GI50 in the test with U-251 is 3.3 µM (inactive); with TK-10, 3.88 µM (inactive).
As for `COc1ccc2c(c1)-c1nn(CCN(C)C)c3ccc(C(=O)NCCCN(C)CCCNC(=O)c4ccc5c6c(c7cc(OC)ccc7nc46)NN5CCN(C)C)c(c13)N2`, the GI50 is 0.0136 µM (active) in the test on A549; 0.0561 µM (active) in the test on SK-MEL-28; 0.045 µM (active) with HCC 2998; 0.0192 µM (active) in the test on LOX IMVI; 0.204 µM (active) in the test with HL-60; 0.0159 µM (active) in the test with SNB-19. Moreover, the GI50 is < 0.01 µM (active) in the test with NCI-H522; 0.0352 µM (active) in the test with OVCAR-4; < 0.01 µM (active) in the test on CCRF-CEM; 0.114 µM (active) in the test on SNB-75; 1.7 µM (inactive) in the test on NCI/ADR-RES; 0.143 µM (active) with EKVX. Further, the GI50 was 0.0401 µM (active) in the test with MDA-MB-435; 0.0822 µM (active) with M14; 0.0361 µM (active) in the test on MDA-N; < 0.01 µM (active) in the test on MOLT-4; 0.0202 µM (active) with MCF7; 0.0215 µM (active) in the test with IGROV-1. Besides, the GI50 with U-251 is < 0.01 µM (active); in the test with TK-10, 0.102 µM (active).
Take `CCCCCCCCCCCCCCCC1(OC)C[N+](C)(C)CCO1` (stereo not given): the GI50 in the test with A549 is 1.7 µM (inactive); in the test with SK-MEL-28 it was 2.37 µM (inactive); in the test on HCC 2998, 2.54 µM (inactive); in the test with LOX IMVI, 1.26 µM (inactive); in the test on HL-60, 0.0883 µM (active); in the test on SNB-19, 1.6 µM (inactive). Moreover, the GI50 in the test on NCI-H522 is 1.65 µM (inactive); with OVCAR-4, 1.02 µM (active); with CCRF-CEM, 0.637 µM (active); in the test with SNB-75, 0.0556 µM (active); in the test with NCI/ADR-RES it was 17.9 µM (inactive); in the test on EKVX, 2.31 µM (inactive). Besides, the GI50 in the test with MDA-MB-435 was 1.96 µM (inactive); with M14, 1.65 µM (inactive); in the test with MDA-N, 2.05 µM (inactive); with MOLT-4 it was 1.12 µM (inactive); in the test with MCF7, 0.221 µM (active); in the test on IGROV-1, 1.61 µM (inactive). Besides, the GI50 in the test on U-251 was 1.6 µM (inactive); with TK-10 it was 2.45 µM (inactive).

Values taken from ChEMBL document CHEMBL1201862, “PubChem BioAssay data set” (2004).
